Reference: US9187426B2, “Organic compounds” (Novartis AG, priority 2008, dated 2015)

Row | SMILES | melting point
1 | O=C(NC[C@H](O)c1ccccc1)c1ccnc(N2CCN(Cc3ccc(F)cc3)C2=O)c1 [Example 14.12, (R)-2-(3-(4-fluorobenzyl)-2-oxoimidazolidin-1-yl)-N-(2-hydroxy-2-phenylethyl)isonicotinamide] | 97 to 99 °C
2 | Cc1nc(-c2ccccc2)sc1CNC(=O)c1ccnc(N2CCN(Cc3ccc(F)cc3)C2=O)c1 [Example 14.16, 2-(3-(4-fluorobenzyl)-2-oxoimidazolidin-1-yl)-N-((4-methyl-2-phenylthiazol-5-yl)methyl)isonicotinamide] | 182 to 184 °C
3 | O=C(NCc1ccccc1)c1ccnc(N2CCN(CC3CC3)C2=O)c1 [Example 15.8, N-benzyl-2-(3-(cyclopropylmethyl)-2-oxoimidazolidin-1-yl)isonicotinamide] | 121 to 123 °C
4 | O=C(NCc1cccnc1)c1ccnc(N2CCN(CC3CC3)C2=O)c1 [Example 15.9, 2-(3-(cyclopropylmethyl)-2-oxoimidazolidin-1-yl)-N-(pyridin-3-ylmethyl)isonicotinamide] | 122 to 123 °C
5 | O=C(NCc1ccccn1)c1ccnc(N2CCN(CC3CC3)C2=O)c1 [Example 15.10, 2-(3-(cyclopropylmethyl)-2-oxoimidazolidin-1-yl)-N-(pyridin-2-ylmethyl)isonicotinamide] | 122 to 123 °C
6 | O=C(NCc1ccc(F)c(F)c1)c1ccnc(N2CCN(CC3CC3)C2=O)c1 [Example 15.12, 2-(3-(cyclopropylmethyl)-2-oxoimidazolidin-1-yl)-N-(3,4-difluorobenzyl)isonicotinamide] | 134 to 136 °C
7 | O=C(NCc1ccccc1)c1ccnc(-n2cnn(CC3CC3)c2=O)c1 [Example 15.13, N-benzyl-2-(1-(cyclopropylmethyl)-5-oxo-1H-1,2,4-triazol-4(5H)-yl)isonicotinamide] | 137 to 139 °C
8 | O=C(NCc1ccc(F)c(F)c1)c1ccnc(N2CCN(Cc3ccccn3)C2=O)c1 [Example 15.18, N-(3,4-difluorobenzyl)-2-(2-oxo-3-(pyridin-2-ylmethyl)imidazolidin-1-yl)isonicotinamide] | 143 to 145 °C
9 | O=C(NCc1ccccc1)c1ccnc(N2CCN(Cc3ccncc3)C2=O)c1 [Example 15.19, N-benzyl-2-(2-oxo-3-(pyridin-4-ylmethyl)imidazolidin-1-yl)isonicotinamide] | 154 to 156 °C
10 | O=C(NCc1ccc(F)cc1)c1ccnc(N2CCN(C(F)(F)c3ccc(C(F)F)cc3)C2=O)c1 [Example 15.21, 2-(3-((4-(difluoromethyl)phenyl)difluoromethyl)-2-oxoimidazolidin-1-yl)-N-(4-fluorobenzyl)isonicotinamide] | 173 to 175 °C
11 | O=C(NCc1ccc(F)cc1)c1ccnc(N2CCN(Cc3ccc(F)cc3F)C2=O)c1 [Example 15.22, 2-(3-(2,4-difluorobenzyl)-2-oxoimidazolidin-1-yl)-N-(4-fluorobenzyl)isonicotinamide] | 171 to 173 °C
12 | O=C(NCc1ccccc1)c1ccnc(-n2cnn(Cc3ccc(F)cc3)c2=O)c1 [Example 16, N-benzyl-2-(1-(4-fluorobenzyl)-5-oxo-1H-1,2,4-triazol-4(5H)-yl)isonicotinamide] | 173 to 175 °C
13 | O=C(NCc1ccccc1)c1ccnc(-n2ccc(-c3ccccc3)cc2=O)c1 [Example 17, N-benzyl-2-(2-oxo-4-phenylpyridin-1(2H)-yl)isonicotinamide] | 162 to 163 °C
14 | O=C(NCc1ccccc1)c1ccnc(N2CCC(c3ccccc3)CC2=O)c1 (centres unmarked) [Example 18, 2-oxo-4-phenyl-3,4,5,6-tetrahydro-2H-[1,2′]bipyridinyl-4′-carboxylic acid benzylamide] | 55 to 60 °C
15 | O=C(NCc1ccccc1)c1ccnc(-n2ccc(OCc3ccccc3)cc2=O)c1 [Example 19, 4-benzyloxy-2-oxo-2H-[1,2′]bipyridinyl-4′-carboxylic acid benzylamide] | 158 to 161 °C
16 | O=C(NCc1ccccc1)c1ccnc(-n2ccc(O)cc2=O)c1 [Example 20, 4-hydroxy-2-oxo-2H-[1,2′]bipyridinyl-4′-carboxylic acid benzylamide] | 102 to 105 °C

Results, then the molecule that gave them:

Row | melting point | SMILES
17 | 79 to 81 °C | Cn1ccc(CNC(=O)c2ccnc(N3CCN(Cc4ccc(F)cc4)C3=O)c2)n1 [Example 14.6, 2-(3-(4-fluorobenzyl)-2-oxoimidazolidin-1-yl)-N-((1-methyl-1H-pyrazol-3-yl)methyl)isonicotinamide]
18 | 179 to 181 °C | Cc1nn(C)c(C)c1CNC(=O)c1ccnc(N2CCN(Cc3ccc(F)cc3)C2=O)c1 [Example 14.7, 2-(3-(4-fluorobenzyl)-2-oxoimidazolidin-1-yl)-N-((1,3,5-trimethyl-1H-pyrazol-4-yl)methyl)isonicotinamide]
19 | 165 to 166 °C | Cn1cc(CNC(=O)c2ccnc(N3CCN(Cc4ccc(F)cc4)C3=O)c2)cn1 [Example 14.8, 2-(3-(4-fluorobenzyl)-2-oxoimidazolidin-1-yl)-N-((1-methyl-1H-pyrazol-4-yl)methyl)isonicotinamide]
20 | 178 to 180 °C | O=C(NCc1cc[nH]n1)c1ccnc(N2CCN(Cc3ccc(F)cc3)C2=O)c1 [Example 14.9, N-((1H-pyrazol-3-yl)methyl)-2-(3-(4-fluorobenzyl)-2-oxoimidazolidin-1-yl)isonicotinamide]
21 | 150 to 152 °C | Cc1cc(CNC(=O)c2ccnc(N3CCN(Cc4ccc(F)cc4)C3=O)c2)nn1C [Example 14.11, N-((1,5-dimethyl-1H-pyrazol-3-yl)methyl)-2-(3-(4-fluorobenzyl)-2-oxoimidazolidin-1-yl)isonicotinamide]
22 | 76 to 78 °C | Cc1nc(CNC(=O)c2ccnc(N3CCN(Cc4ccc(F)cc4)C3=O)c2)cs1 [Example 14.13, 2-(3-(4-fluorobenzyl)-2-oxoimidazolidin-1-yl)-N-((2-methylthiazol-4-yl)methyl)isonicotinamide]
23 | 127 to 129 °C | O=C(NCc1ccon1)c1ccnc(N2CCN(Cc3ccc(F)cc3)C2=O)c1 [Example 14.14, 2-(3-(4-fluorobenzyl)-2-oxoimidazolidin-1-yl)-N-(isoxazol-3-ylmethyl)isonicotinamide]
24 | 66 to 68 °C | O=C(NCc1csc(C(F)(F)F)n1)c1ccnc(N2CCN(Cc3ccc(F)cc3)C2=O)c1 [Example 14.15, 2-(3-(4-fluorobenzyl)-2-oxoimidazolidin-1-yl)-N-((2-(trifluoromethyl)thiazol-4-yl)methyl)isonicotinamide]
25 | 167 to 169 °C | O=C(NCc1ccccc1)c1ccnc(N2CCN(Cc3ccc(F)cc3)C2=O)c1 [Example 15, N-benzyl-2-(3-(4-fluorobenzyl)-2-oxoimidazolidin-1-yl)isonicotinamide]
26 | 153 to 155 °C | O=C(NCc1cccnc1)c1ccnc(N2CCN(Cc3ccc(F)cc3)C2=O)c1 [Example 15.1, 2-(3-(4-fluorobenzyl)-2-oxoimidazolidin-1-yl)-N-(pyridin-3-ylmethyl)isonicotinamide]
27 | 205 to 207 °C | O=C(NCc1ccncc1)c1ccnc(N2CCN(Cc3ccc(F)cc3)C2=O)c1 [Example 15.2, 2-(3-(4-fluorobenzyl)-2-oxoimidazolidin-1-yl)-N-(pyridin-4-ylmethyl)isonicotinamide]
28 | 135 to 137 °C | O=C(NCC1CC1)c1ccnc(N2CCN(Cc3ccc(F)cc3)C2=O)c1 [Example 15.5, N-(cyclopropylmethyl)-2-(3-(4-fluorobenzyl)-2-oxoimidazolidin-1-yl)isonicotinamide]
29 | 150 to 151 °C | O=C(NCc1ccc(F)cc1)c1ccnc(N2CCN(CC3CC3)C2=O)c1 [Example 15.6, 2-(3-(cyclopropylmethyl)-2-oxoimidazolidin-1-yl)-N-(4-fluorobenzyl)isonicotinamide]
30 | 123 to 125 °C | O=C(NCCC1CC1)c1ccnc(N2CCN(Cc3ccc(F)cc3)C2=O)c1 [Example 15.7, N-(2-cyclopropylethyl)-2-(3-(4-fluorobenzyl)-2-oxoimidazolidin-1-yl)isonicotinamide]
31 | 182 to 183 °C | O=C(NCc1ccc(F)c(F)c1)c1ccnc(N2CCN(Cc3ccc(F)cc3)C2=O)c1 [Example 15.14, N-(3,4-difluorobenzyl)-2-(3-(4-fluorobenzyl)-2-oxoimidazolidin-1-yl)isonicotinamide]
32 | 141 to 142 °C | O=C(NCc1ccc(F)cc1)c1ccnc(N2CCN(Cc3ccccn3)C2=O)c1 [Example 15.15, N-(4-fluorobenzyl)-2-(2-oxo-3-(pyridin-2-ylmethyl)imidazolidin-1-yl)isonicotinamide]
33 | 161 to 163 °C | O=C(NCc1ccc(F)cc1)c1ccnc(N2CCN(Cc3ccncc3)C2=O)c1 [Example 15.16, N-(4-fluorobenzyl)-2-(2-oxo-3-(pyridin-4-ylmethyl)imidazolidin-1-yl)isonicotinamide]
34 | 165 to 167 °C | O=C(NCc1ccc(F)cc1)c1ccnc(N2CCN(Cc3ccc(F)c(F)c3)C2=O)c1 [Example 15.20, 2-(3-(3,4-difluorobenzyl)-2-oxoimidazolidin-1-yl)-N-(4-fluorobenzyl)isonicotinamide]
35 | 206 to 208 °C | NC(=O)c1ccnc(N2CCN(Cc3ccc(F)cc3)C2=O)c1 [Example 22, 2-(3-(4-fluorobenzyl)-2-oxoimidazolidin-1-yl)isonicotinamide]
36 | 136 to 138 °C | Cc1nnc(CNC(=O)c2ccnc(N3CCN(Cc4ccc(F)cc4)C3=O)c2)o1 [Example 26.1, 2-(3-(4-Fluorobenzyl)-2-oxoimidazolidin-1-yl)-N-((5-methyl-1,3,4-oxadiazol-2-yl)methyl)isonicotinamide]
37 | 168 to 170 °C | O=C(NCc1ccc(F)cc1)c1ccnc(N2CCN(Cc3ccc(C(F)(F)F)cc3)C2=O)c1 [Example 26.2, N-(4-Fluorobenzyl)-2-(2-oxo-3-(4-(trifluoromethyl)benzyl)imidazolidin-1-yl)isonicotinamide]
38 | 211 to 213 °C | O=C(NCc1nnco1)c1ccnc(N2CCN(Cc3ccc(F)cc3)C2=O)c1 [Example 26.4, N-((1,3,4-Oxadiazol-2-yl)methyl)-2-(3-(4-fluorobenzyl)-2-oxoimidazolidin-1-yl)isonicotinamide]
